Assay results: PMC7059139, “Inhibiting MARSs reduces hyperhomocysteinemia‐associated neural tube and congenital heart defects” (EMBO Molecular Medicine, 2020)

Legend:
[1] = target: T1, MARS2 (Mus musculus, UniProt Q499X9); assay: in vitro HTL production from Hcy ([…]), thin layer chromatography; type: biochemical
T1 construct: Flag-tagged, cDNA NM_175439.3
T1 sequence (Q499X9 47-586): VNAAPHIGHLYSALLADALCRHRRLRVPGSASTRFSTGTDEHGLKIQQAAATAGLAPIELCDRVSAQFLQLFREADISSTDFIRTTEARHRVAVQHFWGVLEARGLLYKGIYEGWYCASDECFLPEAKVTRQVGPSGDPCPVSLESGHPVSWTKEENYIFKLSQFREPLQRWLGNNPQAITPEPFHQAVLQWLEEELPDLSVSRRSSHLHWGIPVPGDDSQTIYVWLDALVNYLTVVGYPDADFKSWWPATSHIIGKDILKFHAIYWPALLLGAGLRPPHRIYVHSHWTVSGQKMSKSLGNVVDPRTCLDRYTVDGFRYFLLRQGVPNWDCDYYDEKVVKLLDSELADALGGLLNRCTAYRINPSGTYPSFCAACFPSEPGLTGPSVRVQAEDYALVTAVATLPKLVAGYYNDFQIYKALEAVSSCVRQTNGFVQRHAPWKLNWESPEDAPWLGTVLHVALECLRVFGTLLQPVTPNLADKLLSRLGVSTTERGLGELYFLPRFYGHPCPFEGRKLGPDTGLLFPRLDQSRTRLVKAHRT

[2] = target: T2, MARS (methionyl-tRNA synthetase) (Homo sapiens, UniProt P56192); assay: as above; type: biochemical
T2 construct: gene MARS1; Flag-tagged, cDNA NM_004990.3
T2 sequence (P56192 1-900): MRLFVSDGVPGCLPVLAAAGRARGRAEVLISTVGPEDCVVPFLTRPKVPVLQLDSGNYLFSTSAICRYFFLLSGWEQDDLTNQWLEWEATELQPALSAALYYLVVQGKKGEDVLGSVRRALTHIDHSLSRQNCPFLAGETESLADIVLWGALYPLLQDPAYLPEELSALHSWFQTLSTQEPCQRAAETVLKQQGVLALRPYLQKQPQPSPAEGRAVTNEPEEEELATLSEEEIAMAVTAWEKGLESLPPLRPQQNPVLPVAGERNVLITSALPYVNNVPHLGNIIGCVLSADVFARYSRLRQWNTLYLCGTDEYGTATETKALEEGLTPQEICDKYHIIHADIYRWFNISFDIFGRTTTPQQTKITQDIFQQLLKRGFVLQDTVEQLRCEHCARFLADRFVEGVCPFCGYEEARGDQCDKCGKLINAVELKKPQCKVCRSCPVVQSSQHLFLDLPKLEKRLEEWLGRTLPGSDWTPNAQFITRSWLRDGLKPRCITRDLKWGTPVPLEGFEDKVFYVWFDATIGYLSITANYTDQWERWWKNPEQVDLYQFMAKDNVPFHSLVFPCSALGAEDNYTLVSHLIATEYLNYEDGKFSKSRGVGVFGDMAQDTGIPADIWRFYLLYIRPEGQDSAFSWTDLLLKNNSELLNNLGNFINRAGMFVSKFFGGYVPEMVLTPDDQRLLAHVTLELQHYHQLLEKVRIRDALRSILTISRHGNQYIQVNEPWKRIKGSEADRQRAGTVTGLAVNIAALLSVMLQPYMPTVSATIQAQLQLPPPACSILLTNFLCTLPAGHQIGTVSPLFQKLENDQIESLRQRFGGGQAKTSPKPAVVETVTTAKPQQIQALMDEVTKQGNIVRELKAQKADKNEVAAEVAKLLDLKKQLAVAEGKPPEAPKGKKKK

IC50 [1]: 40 µM
IC50 [2]: 36 µM
Structure (SMILES): NC(=O)CSCCC(N)C(=O)O (racemic) [compound 5, AHT]
